{"source": "patent US9895309B2", "about": "“Selenosugars for skin tissue repair” (SELENO THERAPEUTICS PTY LTD., priority 2014, dated 2018)", "key": {"wildtype mice": {"system": "wildtype mice", "assay": "Wound healing comparison of selenosugar with DHSred at the same dose, wildtype mice", "format": "in vivo, mouse", "details": "for Wound healing after topical application / Scar tissue formed during wound healing: same dose; for Wound healing after topical application / Pus formation in wound: FIG. 16; for Scar tissue formed during wound healing: FIG. 17; for Pus formation in wound: topical", "description": "FIG. 15 is a plot illustrating the performance of a selenosugar according to the present invention (1,4-anhydro-4-seleno-D-talitol) (8) against a similar water-soluble selenium compound that is not sugar derived (DHSred) (10) in non-diabetic (wt) mice over time. FIG. 15a illustrates % wound closure in terms of the wound size and FIG. 15b illustrates blood flow intensity (Doppler measurement) in arbitrary units where ** indicates p<0.01, *** p<0.001 and **** p<0.0001 and N=6;\nFIG. 16 illustrates a wound treated with a selenosugar according to the present invention (ii) and a wound treated with DHSred (i) at the same dose.\nFIG. 17 illustrates typical differences in scar tissue that forms during wound healing in wildtype mice having a wound treated with a selenosugar according to the present invention (ii) and a wound treated with DHSred (i) at the same dose."}, "wildtype C57/BL6 mice": {"system": "wildtype C57/BL6 mice", "assay": "Wound closure, circular incision wounds, wildtype mice, topical treatment", "format": "in vivo, mouse", "procedure": "(§1) In the experimental testing according to the present invention, pairs of circular incision wounds on the backs of wildtype C57/BL6 and db^−/db^− mice (n=12 each) were treated daily with a selenosugar according to the current invention or vehicle, topically for 10 days. Wound closure, vascular perfusion and tissue histology were assessed."}, "[1]": {"system": "indomethacin-induced stomach ulcers in mice", "details": "Chakraborty et al; cited from earlier work"}, "db/db mice [2]": {"system": "db/db mice", "assay": "Tissue histology of diabetic wounds", "format": "in vivo, mouse", "details": "diabetic wounds vs vehicle", "description": "FIGS. 3 to 12 illustrate comparative tissue histology for (a) the wildtype and (b) db/db mouse models, both (i) non-treated mice, (ii) mice treated for 5 days and (iii) mice treated for 10 days. The figures also illustrate plots against time in days for the following wound parameters for (i), (ii) and (iii) (where * indicates p<0.05, ** indicates p<0.01, *** indicates p<0.001);\nas §1"}, "db/db mice [3]": {"system": "db/db mice", "assay": "Vascular perfusion of wounds by Doppler imaging, diabetic mice", "format": "in vivo", "details": "diabetic mouse wounds, p<0.05, FIG. 2", "description": "FIG. 2 illustrates vascular perfusion measured by Doppler imaging and corresponding to the selenosugar treated wound (1) and the untreated control wound (2) of the db^−/db^− mouse model of FIG. 1 (where * indicates p, 0.05, and n=6). Doppler imaging is a non-invasive technique used to evaluate blood flow velocity with red blood cells as the moving target;\nas §1"}, "db/db mice [4]": {"system": "db/db mice", "assay": "Wound closure, circular incision wounds, diabetic db/db mice, topical treatment", "format": "in vivo, mouse", "procedure": "FIG. 1 illustrates wound closure observed in the db/db mouse models topically treated with a 1 mM saline solution of 1,4-anhydro-4-seleno-D-talitol (selenosugar) (b) and a non-selenium control sugar, 1,4-anydro-D-talitol (a).\nas §1"}, "[5]": {"details": "wildtype mice, listed as DHSred"}}, "data": [{"compound": "OC[C@@H](O)[C@@H]1[Se]C[C@@H](O)[C@H]1O", "note": "[Formula II, 1,4-anhydro-4-seleno-D-talitol]", "values": [{"measurement": "Inflammatory response during tissue repair", "setting": "wildtype mice; FIG. 16 and histology", "result": "anti-inflammatory response"}, {"measurement": "Tissue repair during wound healing, formula II vs formula III", "setting": "wildtype mice; wildtype mice, FIG. 15", "result": "superior"}, {"measurement": "Wound healing after topical application", "setting": "wildtype mice; wildtype mice", "result": "improved wound closure and healing"}, {"measurement": "Scar tissue formed during wound healing", "setting": "wildtype mice; wildtype mice", "result": "significantly less scar tissue"}, {"measurement": "Wound closure relative to controls", "setting": "wildtype C57/BL6 mice; day 4", "result": 2, "unit": "fold"}, {"measurement": "Wound closure", "setting": "wildtype C57/BL6 mice; day 4, daily topical treatment, p<0.05 vs controls", "result": 32, "unit": "%"}, {"measurement": "Wound closure", "setting": "wildtype C57/BL6 mice; day 10, daily topical treatment, p<0.01 vs controls", "result": 82, "unit": "%"}]}, {"compound": "O[C@@H]1C[Se]C[C@H]1O", "note": "(racemic) [Formula III, DL-trans-3,4-dihydroxy-1-selenolane]", "values": [{"measurement": "Wound healing after topical application", "setting": "wildtype mice; wildtype mice", "result": "reduced wound healing"}, {"measurement": "Wound healing after topical application", "setting": "wildtype mice; [5]", "result": "inferior healing"}, {"measurement": "Scar tissue formed during wound healing", "setting": "wildtype mice; wildtype mice", "result": "pronounced scar tissue build up"}, {"measurement": "Pus formation in wound", "setting": "wildtype mice; wildtype mice", "result": "observable pus formation"}, {"measurement": "Pus formation in wound", "setting": "wildtype mice; [5]", "result": "development of pus"}, {"measurement": "Healing of indomethacin-induced stomach ulcers", "setting": "[1]", "result": "accelerate healing"}]}, {"compound": "1,4-anhydro-4-seleno-D-talitol [Formula II]", "values": [{"measurement": "IL-6 level (tissue histology)", "setting": "db/db mice [2]; FIG. 4, p<0.05", "result": "decreased"}, {"measurement": "Elastin level (tissue histology)", "setting": "db/db mice [2]; FIG. 6, p<0.01", "result": "increased"}, {"measurement": "MCP-1 level (tissue histology)", "setting": "db/db mice [2]; FIG. 9, p<0.001", "result": "decreased"}, {"measurement": "MPO level (tissue histology)", "setting": "db/db mice [2]; FIG. 10, p<0.001", "result": "decreased"}, {"measurement": "vWF level (tissue histology)", "setting": "db/db mice [2]; FIG. 12, p<0.01", "result": "decreased"}, {"measurement": "Vascular perfusion (Doppler imaging)", "setting": "db/db mice [3]", "result": "improved vascular perfusion"}, {"measurement": "Wound closure relative to control db/db mice", "setting": "db/db mice [4]; day 4", "result": 3, "unit": "fold"}, {"measurement": "Wound closure", "setting": "db/db mice [4]; day 4, p<0.001 vs control db/db mice", "result": 32, "unit": "%"}, {"measurement": "Wound closure relative to control db/db mice", "setting": "db/db mice [4]; day 10", "result": 2, "unit": "fold"}, {"measurement": "Wound closure", "setting": "db/db mice [4]; day 10, p<0.0001 vs control db/db mice", "result": 83, "unit": "%"}]}]}
